According to patent US20160207951A1, “ORGANOMETALLIC COMPOUNDS FOR USE AS ANTHELMINTICS” (UNIVERSITÄT ZÜRICH, priority 2013, published 2016):
Like-named read-outs stand apart in the source and are kept apart here.

Experiments:
[1] = test system: Haemonchus contortus; test: activity in vitro against Haemonchus contortus (egg hatch and larval development)
[2] = test system: Trichostrongylus colubriformis; test: activity in vitro against Trichostrongylus colubriformis (egg hatch and larval development); design: dose or concentration left out as unconfirmed
[3] = test system: Dirofilaria immitis; test: activity in vitro against Dirofilaria immitis microfilariae (motility); design: dose or concentration left out as unconfirmed
[4] = test system: H. contortus; test: larval development assay, number of L3 H. contortus; design: species or system Haemonchus contortus
[5] = test system: C. elegans; test: C. elegans movement inhibition assay
Method: Asynchronous N2 C. elegans worms (Bristol) were maintained on nematode growth medium (NGM) agar, seeded with a lawn on OP50 E. coli as a food-source, according to standard protocol (Maintenance of C. elegans; Stiernagle, T., Ed.; WormBook, 2006.). Worms were harvested from NGM plates by washing with M9 buffer (42 mmol/l Na2HPO4, 22 mmol/l KH2PO4, 86 mmol/l NaCl and 1 mmol/MgSO4), aspiration and collection in a 10 mL tube (Falcon). The average number of worms in 5 μL of this suspension was calculated by transferring 4×5 μL aliquots to a glass slide (Menzel Glaser), and worms were enumerated under a compound microscope (Olympus CH30). To adjust the suspension to contain 1 worm per μL, M9 buffer was either added or removed after pelleting worms at 600×g for 30 sec.
A volume of 70 μL of M9 buffer was added to each well in a 96-well plate, using a multichannel pipettor. A volume of 20 μL of worm suspension was added to each well using a single-channel pipettor, with a trimmed pipette tip (increased aperture to minimize damage to worms). The worm suspension was resuspended by flicking after every three wells to maintain consistency. The compounds were stored at 4° C., and diluted in dimethyl sulfoxide (DMSO) to achieve a 100 mmol/l concentration 1 hr prior to addition to assay. These stock solutions were diluted further in DMSO to create a series of 20 mmol/l, 2 mmol/l, 0.02 mmol/l and 0.002 mmol/l which were subsequently diluted 1:20 in M9 buffer to create 1 mmol/l, 0.1 mmol/l, 1 μmol/l and 0.1 μmol/l (all 5% (v/v) DMSO). […] A Zolvix (monepantel) dilution series was simultaneously created following the same dilution schema, and used as a positive control; 10 μL of 10% DMSO was added to achieve 1% DMSO vehicle control. 10 μL M9 was added to negative control wells (see FIG. 1). Plates were incubated at room temperature (22-24° C.) overnight at 20° C.
Immobile worms were counted as a percentage of total worms in each well using an Olympus SZ30 dissecting microscope. The immobile fraction was subtracted from the total, and this remainder was divided by the total to give a percentage of live worms per well.

[6] = test system: human cervical cancer HeLa; test: fluorometric cell viability assay (Resazurin) in HeLa; conditions: read-out: IC50 in HeLa
Method: (§1) Human cervical carcinoma cells (HeLa) were cultured in DMEM (Gibco) supplemented with 5% fetal calf serum (FCS, Gibco), 100 U/ml penicillin, 100 μg/ml streptomycin at 37° C. and 5% CO2. The normal human fetal lung fibroblast MRC-5 cell line was maintained in F-10 medium (Gibco) supplemented with 10% FCS (Gibco), 200 mmol/l L-Glutamine, 100 U/ml penicillin, and 100 μg/ml streptomycin at 37° C. and 5% CO2. To establish the anticancer potential of the compounds they were tested in one cell line, namely HeLa by a fluorometric cell viability assay using Resazurin (Promocell GmbH). […] 1 day before treatment, cells were plated in triplicates in 96-well plates at a density of 4×10^3 cells/well in 100 μl for HeLa and 7×10^3 cells/well for MRC-5 cells. Cells were treated with increasing concentrations of the compounds for 2 days. After 2 days, medium and drug were removed and 100 ml fresh medium containing Resazurin (0.2 mg/ml final concentration) were added. After 4 h of incubation at 37′C, the highly red fluorescent dye resorufin's fluorescence was quantified at 590 nm emission with 540 nm excitation wavelength in the SpectraMax M5 microplate Reader.

[7] = test system: human lung fibroblasts MRC-5; test: fluorometric cell viability assay (Resazurin) in MRC-5; conditions: read-out: IC50 in MRC-5
Method: as §1

[8] = HeLa cells, treated for 2 days, Resazurin
[9] = MRC-5 cells, treated for 2 days, Resazurin

Compound | Activity against Haemontus Contortus at 10 [mg/mL] [1] [%] | Activity against Trychostrongylus colubriformis at 10 [mg/mL] [2] [%] | Activity against Dirofilaria immitis at 10 [mg/mL] [3] [%] | Number of L3 H. contortus/100 μM [4] | Mobility in C. elegans at 50 μM [5] [%] | IC50 ([6]; Homo sapiens, HeLa, 48 h) [µM] | IC50 ([7]; Homo sapiens, MRC5, 48 h) [µM] | IC50 [6, 8] [µM] | IC50 [7, 9] [µM]
N-(2-cyano-1-hydroxypropan-2-yl)ruthenoceneamide [Compound 41] | 0 | 0 | – | – | – | – | – | – | –
Thiocyanatoruthenocene [Compound 39] | 0 | 0 | 66 | – | – | – | – | – | –
C#CCNC(=O)c1ccc(SC(F)(F)F)cc1 [Compound 15] | 51 | 51 | 28 | >100 | 3 | – | – | – | –
N#Cc1ccc(C(F)(F)F)c(OCC#CCNC(=O)c2ccc(SC(F)(F)F)cc2)c1 [Compound 13, N-(4-(5-cyano-2-(trifluoromethyl)phenoxy)but-2-yn-1-yl)-4-((trifluoromethyl)thio)benzamide] | 52 | 49 | 19 | – | – | 30.6 | 96.4 | – | –
O=[C]=[Co]12(=[C]=O)(=[C]=O)[CH]3[C]1(CNC(=O)c1ccc(SC(F)(F)F)cc1)[Co]32(=[C]=O)(=[C]=O)=[C]=O (centres unmarked) [Compound 4] | – | 44 | 68 | 76.7 | 2 | – | – | – | –
Trifluoromethylthioferrocene [Compound 38] | 0 | 0 | 31 | – | – | – | – | – | –
O=C(NCC#CCO)c1ccc(SC(F)(F)F)cc1 [Compound 14, N-(4-hydroxybut-2-yn-1-yl)-4-((trifluoromethyl)thio)benzamide] | 32 | 51 | 46 | – | – | > 100 | – | – | –
N#Cc1ccc(C(F)(F)F)c(OC[C]23[C]4(CNC(=O)c5ccc(SC(F)(F)F)cc5)[Co]2(=[C]=O)(=[C]=O)(=[C]=O)[Co]43(=[C]=O)(=[C]=O)=[C]=O)c1 (centres unmarked) [Compound 7, Dicobalthexacarbonyl-N-(4-(5-cyano-2-(trifluoromethyl)phenoxy)but-2-en-1-yl)-4-((trifluoromethyl)thio)benzamide] | 63 | 25 | 100 | – | – | – | – | 26.8 | –
2-(Hydroxymethyl)ruthenocenecarboxaldehyde oxime [Compound 32] | 35 | 33 | 12 | – | – | – | – | – | –
O=[C]=[Co]12(=[C]=O)(=[C]=O)[C]3(CO)[C]1(CNC(=O)c1ccc(SC(F)(F)F)cc1)[Co]32(=[C]=O)(=[C]=O)=[C]=O (centres unmarked) [Compound 5] | 64 | 77 | 45 | – | – | – | – | – | –
CC(=O)OCc1ccc[c-]1C=O.[Ru+2].c1cc[cH-]c1 (centres unmarked) [Compound 36, 2-(Acetoxymethylruthenocene)carboxaldehyde] | 52 | 54 | 11 | – | – | – | – | – | –
2-(hydroxymethyl)ferrocenecarboxaldehydeoxime [Compound 29] | 47 | 49 | 12 | – | – | – | – | – | –
N#Cc1ccc(C(F)(F)F)c(OCc2ccc[c-]2CNC(=O)c2ccc(SC(F)(F)F)cc2)c1.[Fe+2].c1cc[cH-]c1 (centres unmarked) [Compound 6, N-(2-((5-cyano-2-(trifluormethyl)phenoxy)methyl)ferrocenyl)-4-((trifluoromethyl)thio)benzamide] | 20 | 31 | – | >100 | 1 | – | – | 27.2 | 26.7
CC(C#N)(CO)NC(=O)[c-]1cccc1.[Fe+2].c1cc[cH-]c1 (centres unmarked) [Compound 10] | – | 57 | – | >100 | 4 | – | – | – | –
O=C(NC[c-]1cccc1CO)c1ccc(SC(F)(F)F)cc1.[Fe+2].c1cc[cH-]c1 (centres unmarked) [Compound 3] | 24 | 13 | 0 | >100 | 4 | – | – | 20 | 44.6
O=C[c-]1cccc1CO.[Fe+2].c1cc[cH-]c1 (centres unmarked) [Compound 31, 2-(Hydroxymethylferrocene)carboxaldehyde] | 40 | 37 | – | – | – | – | – | – | –
2-(hydroxymethyl)ferrocenylmethylamine [Compound 30] | 24 | 11 | 0 | – | – | – | – | – | –
I[c-]1cccc1.N#CS[c-]1cccc1.[Ru+2] [Compound 40, 1,1′-Thiocyanatoiodruthenocene] | – | 55 | 98 | – | – | – | – | – | –
CN(C)Cc1ccc[c-]1C=O.[Fe+2].c1cc[cH-]c1 (centres unmarked) [Compound 27, 2-(N,N-dimethylaminomethylferrocene)carboxaldehyde] | 39 | 44 | 18 | – | – | – | – | – | –
CC(=O)OCc1ccc[c-]1C=O.[Fe+2].c1cc[cH-]c1 (centres unmarked) [Compound 28, 2-(acetoxymethylferrocene)carboxaldehyde] | 14 | 6 | 15 | – | – | – | – | – | –
N-ferrocenyl-4-((trifluoromethyl)thio)benzamide [Compound 2] | – | 80 | 69 | >100 | 0 | – | – | 17.6 | 42
